In one data set the target is T1, purified recombinant human PARP (Homo sapiens, UniProt P09874).
T1 construct: purchased Trevigan (Gaithersburg, Md.)
T1 sequence (P09874 whole entry): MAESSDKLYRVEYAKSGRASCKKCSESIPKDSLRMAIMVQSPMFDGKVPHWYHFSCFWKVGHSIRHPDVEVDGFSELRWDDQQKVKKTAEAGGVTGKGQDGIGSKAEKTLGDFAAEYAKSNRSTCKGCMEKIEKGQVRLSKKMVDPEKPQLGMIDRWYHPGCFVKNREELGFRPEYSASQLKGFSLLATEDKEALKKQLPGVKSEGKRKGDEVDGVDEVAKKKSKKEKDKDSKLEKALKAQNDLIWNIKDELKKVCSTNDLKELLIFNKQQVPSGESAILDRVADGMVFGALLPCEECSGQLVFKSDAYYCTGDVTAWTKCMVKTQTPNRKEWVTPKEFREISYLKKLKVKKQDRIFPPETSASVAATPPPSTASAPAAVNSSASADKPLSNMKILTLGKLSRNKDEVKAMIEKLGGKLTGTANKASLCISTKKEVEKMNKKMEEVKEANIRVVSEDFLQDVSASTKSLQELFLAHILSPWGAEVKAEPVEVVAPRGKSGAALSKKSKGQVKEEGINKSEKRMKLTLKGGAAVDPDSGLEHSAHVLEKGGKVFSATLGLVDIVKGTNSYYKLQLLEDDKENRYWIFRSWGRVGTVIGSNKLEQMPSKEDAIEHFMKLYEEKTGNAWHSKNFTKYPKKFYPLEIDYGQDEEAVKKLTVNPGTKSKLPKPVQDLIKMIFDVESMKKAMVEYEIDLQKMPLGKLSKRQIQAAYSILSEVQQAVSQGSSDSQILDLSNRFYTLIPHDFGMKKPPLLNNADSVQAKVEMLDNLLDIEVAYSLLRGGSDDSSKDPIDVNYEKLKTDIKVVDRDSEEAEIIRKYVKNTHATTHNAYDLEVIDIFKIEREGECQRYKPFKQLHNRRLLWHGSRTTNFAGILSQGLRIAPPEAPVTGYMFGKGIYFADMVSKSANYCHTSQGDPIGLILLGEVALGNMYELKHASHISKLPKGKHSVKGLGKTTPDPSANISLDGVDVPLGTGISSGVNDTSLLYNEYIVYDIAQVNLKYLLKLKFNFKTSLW
Kind of data set: PARP enzyme assay, [3H]NAD incorporation, IC50.
Details: not given
The data set is classed as biochemical. On the procedure: The reaction is initiated by incubating the mixture at 25° C. After 15 minutes of incubation, the reaction is terminated by adding 500 microliters of ice cold 20% (w/v) trichloroacetic acid. The precipitate formed is transferred onto a glass fiber filter (Packard Unifilter-GF/B) and washed three times with ethanol. After the filter is dried, the radioactivity is determined by scintillation counting.
Usually IC50 stands for the concentration needed to halve the response being measured. As for `O=c1[nH]c2c(c3ccccc13)CN(S(=O)(=O)CCN1CCC(N3CCCC3)CC1)CC2` [Compound 24a], the IC50 amounted to 80 nM.

The data set is the same for the next values; noted with them: approximate values, PARP enzyme assay; read-out: IC50.
For the molecule `O=c1[nH]c2c(c3ccccc13)CN(Cc1ccccc1)CC2` [Compound 6a], the IC50 amounted to 335 nM.

Take `O=c1[nH]c2c(c3ccc(F)cc13)CN(Cc1ccccc1)CC2` [Compound 6b]: the IC50 amounted to 182 nM.

For the molecule `O=c1[nH]c2c(c3ccccc13)CCN(Cc1ccccc1)C2` [Compound 11], the IC50 turned out to be 220 nM.

Take `O=C(CCCl)N1CCc2[nH]c(=O)c3ccccc3c2C1` [Compound 14a]: the IC50 is 185 nM.

`CN(C)CCCN(C)CC(=O)N1CCc2[nH]c(=O)c3ccccc3c2C1` [Compound 16a]: the IC50 worked out at 426 nM.

In the case of `CN1CCN(CC(=O)N2CCc3[nH]c(=O)c4ccccc4c3C2)CC1` [Compound 16b], the IC50 is 1670 nM.

For the molecule `CC(O)CNCC(=O)N1CCc2[nH]c(=O)c3ccccc3c2C1` (centres unmarked) [Compound 16c], the IC50 was 421 nM.

On to `CN(C)CCN(C)CC(=O)N1CCc2[nH]c(=O)c3ccccc3c2C1` [Compound 16d], for which the IC50 came out at 985 nM.

In the case of `O=C(CN1CCCCC1CO)N1CCc2[nH]c(=O)c3ccccc3c2C1` (centres unmarked) [Compound 16e], the IC50 turned out to be 844 nM.

As to `O=C(CN1CCN(CCO)CC1)N1CCc2[nH]c(=O)c3ccccc3c2C1` [Compound 16f], the IC50 amounted to 13100 nM.

Turning to `CN(C)CC(=O)N1CCc2[nH]c(=O)c3ccccc3c2C1` [Compound 16g], the IC50 was determined as 644 nM.

Consider `O=C(CN1CCc2ccccc2C1)N1CCc2[nH]c(=O)c3ccccc3c2C1` [Compound 16h], for which the IC50 was found to be 1580 nM.

On to `O=C(CNC[C@H](O)CO)N1CCc2[nH]c(=O)c3ccccc3c2C1` [Compound 16i], for which the half-maximal inhibitory concentration (IC50) amounted to 668 nM.

In the case of `CCOC(=O)C1CCN(CC(=O)N2CCc3[nH]c(=O)c4ccccc4c3C2)CC1` [Compound 16k], the IC50 came to 134 nM.

In the case of `O=C1CCN(CC(=O)N2CCc3[nH]c(=O)c4ccccc4c3C2)CC1` [Compound 16l], the IC50 is 296 nM.

`O=C(CN1CC=CCC1)N1CCc2[nH]c(=O)c3ccccc3c2C1` [Compound 16m]: the IC50 turned out to be 214 nM.

For the molecule `CN(C)CCCN(C)CCC(=O)N1CCc2[nH]c(=O)c3ccccc3c2C1` [Compound 17a], the IC50 worked out at 282 nM.

`CN1CCN(CCC(=O)N2CCc3[nH]c(=O)c4ccccc4c3C2)CC1` [Compound 17b]: the IC50 was found to be 1800 nM.

Consider `CC(O)CNCCC(=O)N1CCc2[nH]c(=O)c3ccccc3c2C1` (centres unmarked) [Compound 17c], for which the IC50 came out at 2180 nM.

For the molecule `CN(CCC(=O)N1CCc2[nH]c(=O)c3ccccc3c2C1)CC(=O)OC(C)(C)C` [Compound 17d], the IC50 came to 180 nM.

On to `CN(C)CCN(C)CCC(=O)N1CCc2[nH]c(=O)c3ccccc3c2C1` [Compound 17e], for which the IC50 is 385 nM.

As to `O=C(CCN1CCCCC1CO)N1CCc2[nH]c(=O)c3ccccc3c2C1` (centres unmarked) [Compound 17f], the IC50 was 435 nM.

On to `O=C(CCN1CCc2ccccc2C1)N1CCc2[nH]c(=O)c3ccccc3c2C1` [Compound 17g], for which the IC50 is 244 nM.

Take `O=C(CCNC[C@H](O)CO)N1CCc2[nH]c(=O)c3ccccc3c2C1` [Compound 17h]: the IC50 is 250 nM.

Regarding `O=C(CCN1CCCCC1)N1CCc2nc(O)c3ccccc3c2C1` [Compound 17i], the IC50 worked out at 71 nM.

As for `CCOC(=O)C1CCN(CCC(=O)N2CCc3[nH]c(=O)c4ccccc4c3C2)CC1` [Compound 17j], the IC50 is 558 nM.

For `O=C1CCN(CCC(=O)N2CCc3[nH]c(=O)c4ccccc4c3C2)CC1` [Compound 17k], the IC50 was found to be 111 nM.

As to `O=C(CCNCCc1ccccc1F)N1CCc2[nH]c(=O)c3ccccc3c2C1` [Compound 17m], the IC50 was 164 nM.

For `CN(C)CCCN(C)CCCC(=O)N1CCc2[nH]c(=O)c3ccccc3c2C1` [Compound 18a], the IC50 worked out at 185 nM.

For `CN1CCN(CCCC(=O)N2CCc3[nH]c(=O)c4ccccc4c3C2)CC1` [Compound 18b], the IC50 amounted to 241 nM.

Take `CC(O)CNCCCC(=O)N1CCc2[nH]c(=O)c3ccccc3c2C1` (centres unmarked) [Compound 18c]: the IC50 worked out at 87 nM.

For the molecule `CN(CCCC(=O)N1CCc2[nH]c(=O)c3ccccc3c2C1)CC(=O)OC(C)(C)C` [Compound 18d], the IC50 was found to be 495 nM.

Turning to `CN(C)CCN(C)CCCC(=O)N1CCc2[nH]c(=O)c3ccccc3c2C1` [Compound 18e], the IC50 came to 492 nM.

In the case of `O=C(CCCN1CCCCC1CO)N1CCc2[nH]c(=O)c3ccccc3c2C1` (centres unmarked) [Compound 18f], the IC50 was 672 nM.

Consider `O=C(CCCN1CCN(CCO)CC1)N1CCc2[nH]c(=O)c3ccccc3c2C1` [Compound 18g], for which the IC50 stood at 479 nM.

In the case of `CN(C)CCCC(=O)N1CCc2[nH]c(=O)c3ccccc3c2C1` [Compound 18h], the 50% inhibitory concentration (IC50) stood at 152 nM.

Regarding `O=C(CCCN1CCCCC1)N1CCc2[nH]c(=O)c3ccccc3c2C1` [Compound 18j], the IC50 came to 457 nM.

In the case of `CCOC(=O)C1CCN(CCCC(=O)N2CCc3[nH]c(=O)c4ccccc4c3C2)CC1` [Compound 18k], the IC50 turned out to be 482 nM.

`O=C1CCN(CCCC(=O)N2CCc3[nH]c(=O)c4ccccc4c3C2)CC1` [Compound 18l]: the IC50 worked out at 251 nM.

For the molecule `O=C(CCCN1CC=CCC1)N1CCc2[nH]c(=O)c3ccccc3c2C1` [Compound 18m], the 50% inhibitory concentration (IC50) stood at 410 nM.

Take `O=C(CCCNCCc1ccccc1F)N1CCc2[nH]c(=O)c3ccccc3c2C1` [Compound 18n]: the IC50 worked out at 1320 nM.

For the molecule `O=C(CCCNC[C@@H]1CCCO1)N1CCc2[nH]c(=O)c3ccccc3c2C1` [Compound 18o], the IC50 is 322 nM.

Regarding `O=C(CCCNC[C@H]1CCCO1)N1CCc2[nH]c(=O)c3ccccc3c2C1` [Compound 18p], the IC50 came to 167 nM.

As for `C[C@H](CO)NCCCC(=O)N1CCc2[nH]c(=O)c3ccccc3c2C1` [Compound 18q], the IC50 amounted to 251 nM.

As to `O=C(CCCNCC(O)c1ccccc1)N1CCc2[nH]c(=O)c3ccccc3c2C1` (centres unmarked) [Compound 18r], the IC50 came to 357 nM.

`O=C(CCCNCC1(O)CCCCC1)N1CCc2[nH]c(=O)c3ccccc3c2C1` [Compound 18s]: the IC50 is 156 nM.

For the molecule `NCC(=O)N1CCc2[nH]c(=O)c3ccccc3c2C1` [Compound 21a], the IC50 amounted to 90 nM.

With `CC(C)C(N)C(=O)N1CCc2[nH]c(=O)c3ccccc3c2C1` (centres unmarked) [Compound 21c], the IC50 is 698 nM.

As for `O=C(C1CCCN1)N1CCc2[nH]c(=O)c3ccccc3c2C1` (centres unmarked) [Compound 21d], the IC50 was found to be 268 nM.

`NC(Cc1ccccc1)C(=O)N1CCc2[nH]c(=O)c3ccccc3c2C1` (centres unmarked) [Compound 21i]: the IC50 is 1230 nM.

`NC(Cc1ccc(O)cc1)C(=O)N1CCc2[nH]c(=O)c3ccccc3c2C1` (centres unmarked) [Compound 21j]: the IC50 is 382 nM.

For the molecule `N[C@H](Cc1ccc(O)cc1)C(=O)N1CCc2[nH]c(=O)c3ccccc3c2C1` [Compound 21k], the IC50 worked out at 3710 nM.

Consider `NCCC(=O)N1CCc2[nH]c(=O)c3ccccc3c2C1` [Compound 21l], for which the IC50 was determined as 62 nM.

For `CC(=O)N1CCc2[nH]c(=O)c3ccccc3c2C1` [Compound 21n], the IC50 amounted to 58 nM.

Regarding `O=C(NCCN1CCCCC1)N1CCc2[nH]c(=O)c3ccccc3c2C1` [Compound 21o], the IC50 was determined as 105 nM.

Take `O=C(c1cccc(CCl)c1)N1CCc2c([nH]c(=O)c3ccccc23)C1` [Compound 21p]: the IC50 turned out to be 799 nM.

For `O=C(O)c1cccc(S(=O)(=O)N2CCc3[nH]c(=O)c4ccccc4c3C2)c1` [Compound 22a], the IC50 amounted to 36 nM.

With `C=CS(=O)(=O)N1CCc2[nH]c(=O)c3ccccc3c2C1` [Compound 22c], the IC50 stood at 292 nM.

For `CN1CCN(C(=O)c2cccc(S(=O)(=O)N3CCc4[nH]c(=O)c5ccccc5c4C3)c2)CC1` [Compound 23a], the IC50 was 441 nM.

For the molecule `O=C(c1cccc(S(=O)(=O)N2CCc3[nH]c(=O)c4ccccc4c3C2)c1)N1CCC(N2CCCC2)CC1` [Compound 23b], the IC50 came to 304 nM.

System in a further data set: not given
Test: not given
Details: not given
For orientation: melting point means the temperature of the solid-liquid transition. Regarding `O=C1NCN2c3ccccc3Sc3cccc1c32` [Example 1, 1,2-Dihydro-7-thia-2,11b-diaza-benzo[de]anthracen-3-one], the melting point is 187 to 192 °C.

Regarding `O=C1NCN2c3ccc(S(=O)(=O)NCCN4CCOCC4)cc3Sc3cccc1c32` [Example 3, 3-Oxo-2,3-dihydro-1H-7-thia-2,11b-diaza-benzo[de]anthracene-9-(N2-morpholin-4-yl-ethyl)sulfonamide], the melting point lay in the range of 227 to 228 °C.

As for `O=C1NCN2c3ccc(S(=O)(=O)NCCN4CCCCC4)cc3Sc3cccc1c32` [Example 4, 3-Oxo-2,3-dihydro-1H-7-thia-2,11b-diaza-benzo[de]anthracene-9-(N-2-piperidin-1-yl-ethyl)-sulfonamide], the melting point fell in the range of 170 to 172 °C.

On to `O=C1NCN2c3ccc([N+](=O)[O-])cc3Sc3cccc1c32` [Example 5, 9-Nitro-1,2-dihydro-7-thia-2,11b-diaza-benzo[de]anthracen-3-one], for which the melting point lay within 205 to 208 °C.

Molecule `O=C1NCN2c3ccccc3Oc3cccc1c32` [Example 6, 1,2-Dihydro-7-oxa-2,11b-diaza-benzo[de]anthracen-3-one] showed a melting point above 300 °C.

Take `O=C1NCn2c3ccccc3c(=O)c3cccc1c32` [Example 8, 1,2-Dihydro-2,11b-diaza-benzo[de]anthracene-3,7-dione]: the melting point lay in the range of 250 to 255 °C.

With `O=C1NC(c2ccccc2)n2c3ccccc3c(=O)c3cccc1c32` (centres unmarked) [Example 9], the melting point lay in the range of 288 to 292 °C.

These data come from patent publication US7247641B2, “Compounds, derivatives, compositions, preparation and uses” (MGI GP, Inc., priority 2001, dated 2007).
